In PubChem BioAssay (NCI):
Several values for one entry are separate records, joined by “and”; a condition that tells them apart may be missing. Equal entries are not always repeated.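 A five-concentration, 48-hour dose response in 96-well plates underlies each endpoint, interpolated linearly between surrounding concentrations. Here, GI50 denotes the concentration required for 50% inhibition of growth. Definition used: TGI = concentration required for complete inhibition of growth.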

Experiments:
Assay in all cases: DTP human tumour cell line panel, 48 h
[1] = tested on: IGROV1 ovarian
[2] = tested on: A498 renal
[3] = tested on: NCI-H460 lung
[4] = tested on: MCF7 breast
[5] = tested on: OVCAR-3 ovarian
[6] = tested on: DU-145 prostate
[7] = tested on: ACHN renal
[8] = tested on: OVCAR-5 ovarian
[9] = tested on: SK-MEL-28 melanoma
[10] = tested on: RPMI-8226 leukemia

Compound | GI50 [1] | TGI [1] | GI50 [2] | TGI [2] | GI50 [3] | TGI [3] | GI50 [4] | TGI [4] | GI50 [5] | TGI [5] | GI50 [6] | TGI [6] | GI50 [7] | TGI [7] | GI50 [8] | TGI [8] | GI50 [9] | TGI [9] | GI50 [10] | TGI [10]
COc1ccc(S(=O)(=O)NCCNc2nccc(-c3c(-c4ccccc4)nc4sccn34)n2)cc1 | 2.13 µM | > 100 µM | 1.16 µM | 8.9 µM | 1.24 µM | > 100 µM | 0.873 µM | > 100 µM | 3.56 µM | > 100 µM | 3.37 µM | > 100 µM | 2.02 µM | > 100 µM | > 100 µM | > 100 µM | 5.79 µM | > 100 µM |  | 
CCCCCCCCCCCCCCCCCC1=NC(C)(C)CN1CCO | 1.56 µM | 3.11 µM | 13.5 µM | 32.1 µM | 1.97 µM | 3.65 µM | 1.78 µM | 3.32 µM | 1.61 µM | 2.97 µM | 1.81 µM | 3.27 µM | 1.58 µM | 2.99 µM | 1.78 µM | 3.6 µM | 1.81 µM | 3.2 µM |  | 
Cc1cc(N)c2ccccc2[n+]1CCCCCCCCCC[n+]1c(C)cc(N)c2ccccc21 | 0.538 µM and 2.17 µM |  | 0.0691 µM |  | 0.121 µM | 0.516 µM and 1.55 µM |  |  |  |  | 0.23 µM | 2.59 µM and 20.2 µM |  | > 50 µM and 7.15 µM and 17.9 µM |  | 25.5 µM and 7.98 µM | 0.277 µM and 1.18 µM | 1.33 µM and 5.09 µM and 3.28 µM | 0.0435 µM and 0.324 µM | 0.859 µM and 2.61 µM and 2.71 µM
O=c1[nH]c2cc(O)ccc2n2cc3c(F)cccc3c12 | 2.16 µM | > 100 µM | 3.76 µM | > 100 µM | 0.451 µM | > 100 µM | 0.936 µM | > 100 µM | 5.77 µM | > 100 µM | 6.78 µM | > 100 µM | 2.04 µM | > 100 µM | > 31.3 µM | > 100 µM |  |  | 4.38 µM | > 100 µM
Nc1ncnc2c1ncn2Cc1ccc(C23CC4CC(CC(C4)C2)C3)c(O)c1 | 27.2 µM | > 100 µM | 15.8 µM | 49.8 µM | 11.8 µM | > 100 µM | 17.4 µM | > 100 µM | 17.2 µM | > 100 µM | 27.3 µM | > 100 µM | 15.6 µM | > 100 µM | > 100 µM | > 100 µM | 18.9 µM | > 100 µM |  | 
C=C(C)[C@]12CC(C)C34OC(/C=C\C=C\CCCCCCCCC)(O[C@@H]1[C@@H]3[C@@H]1O[C@]1(CO)[C@@H](O)[C@]1(O)C(=O)C(C)=C[C@@H]41)O2 (some centres undefined) |  | 30 µM |  |  | < 0.0001 µM | 16 µM |  | 23.4 µM |  | 16.3 µM |  | 22.1 µM |  | 22.8 µM |  | 41.2 µM |  | 25.6 µM |  | 17 µM
O=C(CN=Cc1cccs1)CSC(c1ccccc1)c1ccccc1 |  |  | 16.6 µM | 45.8 µM | 24.8 µM | 70.1 µM | 18.8 µM | 52.6 µM | 17.6 µM | 48.1 µM | 34 µM | > 100 µM | 28.8 µM | 79.6 µM | 44.3 µM | > 100 µM | 27.7 µM | > 100 µM | 12.1 µM | 28.7 µM
O=C1CC2Sc3ccccc3N=C2N1c1ccc(Cl)cc1Cl (centres undefined) |  | > 100 µM |  |  |  | > 100 µM |  |  |  | > 100 µM |  |  |  | > 100 µM |  | > 100 µM |  | > 100 µM |  | > 100 µM
CC(C)=C1CCC(CN2CCCC2)C1=O (centres undefined) |  | > 100 µM |  | > 100 µM |  | > 100 µM |  |  |  | 31.3 µM |  |  |  | 32.7 µM |  | > 100 µM |  | 48.8 µM |  | 37.8 µM
Cc1cccc(N2C(=O)/C(=C/c3ccc(N(CCC#N)CCC#N)cc3C)N=C2c2cc([N+](=O)[O-])ccc2Cl)c1 |  | > 100 µM |  | > 100 µM |  | > 100 µM |  |  |  | > 100 µM |  |  |  | > 100 µM |  | > 100 µM |  | > 100 µM |  | > 100 µM
O=C(OCc1nc2ccc(Br)cc2c(=O)n1-c1ccccc1)c1ccccc1O |  | > 100 µM |  | > 100 µM |  | > 100 µM |  |  |  | > 100 µM |  |  |  | > 100 µM |  | > 100 µM |  | > 100 µM |  | > 100 µM
Cn1c(COC(=O)NCCN2CCOCC2)nc2c(N3CCOCC3)nc(-c3ccccc3)nc21 | 0.656 µM | 2.15 µM | 1.44 µM | 2.83 µM | 1.25 µM | 2.77 µM | 0.47 µM | 2.18 µM | 0.343 µM | 1.53 µM | 1.25 µM | 2.68 µM | 0.936 µM | 2.23 µM | 1.6 µM | 3.66 µM | 1.51 µM | 2.94 µM |  | 
CCOC(=O)NNC(=O)NC12CC3CC(CC(C3)C1)C2 |  | > 100 µM |  | > 100 µM |  | > 100 µM |  |  |  | > 100 µM |  |  |  | > 100 µM |  | > 100 µM |  | > 100 µM |  | 
CCOC(=N)CC(=O)NC(C)c1ccccc1 (centres undefined) |  | > 100 µM |  | > 100 µM |  | > 100 µM |  |  |  | > 100 µM |  |  |  | > 100 µM |  | > 100 µM |  | > 100 µM |  | 
O=C1/C(=C/c2ccccc2)CN(C(=O)OCC(Cl)(Cl)Cl)C/C1=C\c1ccccc1 |  | 15.4 µM |  | 6.29 µM |  | 5.66 µM |  |  |  |  |  |  |  | 4.68 µM |  | 16.8 µM |  | 3.25 µM |  | 0.649 µM
Cc1cccc(CC(C)(C)C)c1NC(=O)C(=O)C(C(=O)c1ccc2ccccc2c1)C1OC(=O)c2ccccc21 (centres undefined) |  | 46.8 µM |  | 30.9 µM |  | 17 µM |  |  |  | > 100 µM |  |  |  | 56.2 µM |  | 34.7 µM |  | 18.8 µM |  | > 100 µM
CN1CC(C(=O)NC2(C)OC3(O)C4CCCN4C(=O)C(Cc4ccccc4)N3C2=O)C=C2c3cccc4[nH]cc(c34)CC21 (centres undefined) |  | 50.8 µM |  | 30.9 µM |  |  |  | > 100 µM |  | 43.3 µM |  | 67.8 µM |  | 55.1 µM |  | 44.9 µM |  | 35.2 µM |  | > 100 µM
